Our source for the IC50 values is PubChem BioAssay AID2753 (Vanderbilt High Throughput Screening Facility, 2010).

Active and inactive are the calls of the source. No rule for the calls is given here.

Sequence of ATP-sensitive inward rectifier potassium channel 1 (Homo sapiens) (P48048 whole entry, looked up): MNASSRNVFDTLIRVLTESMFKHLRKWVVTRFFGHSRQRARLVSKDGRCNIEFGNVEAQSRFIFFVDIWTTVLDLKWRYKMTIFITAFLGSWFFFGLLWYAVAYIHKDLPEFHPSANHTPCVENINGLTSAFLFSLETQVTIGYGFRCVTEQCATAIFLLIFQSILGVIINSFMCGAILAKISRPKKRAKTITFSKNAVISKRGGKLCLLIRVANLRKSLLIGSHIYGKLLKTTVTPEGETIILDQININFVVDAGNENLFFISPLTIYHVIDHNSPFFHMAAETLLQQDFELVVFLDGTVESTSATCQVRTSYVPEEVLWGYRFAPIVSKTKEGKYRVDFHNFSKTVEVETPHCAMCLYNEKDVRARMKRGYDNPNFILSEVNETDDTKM

This experiment has as its target ATP-sensitive inward rectifier potassium channel 1 (Homo sapiens) (UniProt P48048). In words: ROMK channel inhibitor potency, dose response, cell-based, thallium flux, HEK293 (AID 2753). Particulars: fluorescence.
Regarding `Cc1cccc(C2c3[nH]c4ccccc4c3CCN2C(=O)c2nn(C)c(=O)c3ccccc23)n1` (configuration not stated), the IC50 (commonly the concentration that inhibits the measured activity by half) is “inactive”.
With `CCCn1c(=S)[nH]c2cc(C(=O)N3CCCC(C(=O)OCC)C3)ccc2c1=O` (configuration not stated), the IC50 result was “inactive”.
`N#C/C(=C\c1cccc([N+](=O)[O-])c1)C(=O)NCC1CCCO1` (configuration not stated): the IC50 result was “inactive”.
Take `CCC(CC)C(=O)Nc1c2cnn(-c3ccccc3)c2nc(=O)n1-c1ccccc1`: the IC50 is 14 µM.
With `COc1cc(/C=C(\C#N)C(=O)Nc2ccccc2C(=O)O)cc(Cl)c1OC`, the IC50 is 3.3 µM.
For `CNC(=O)c1nnsc1S(=O)(=O)c1ccc(Cl)cc1`, the IC50 was 7.46 µM.
As to `O=C1C=CC(=O)C(C2=C3C(=O)N(CCc4ccccc4)CC(=O)N3CCC2)=C1`, the IC50 is 13 µM.
Turning to `CCOC(=O)N1CCN(S(=O)(=O)c2ccc3c(c2)SCC(=O)N3)CC1`, the IC50 entry was “inactive”.
In the case of `Cc1cc2c(cc1S(=O)(=O)N(C)c1ccccc1)NC(=O)CO2`, the half-inhibitory concentration (IC50) was 0.909 µM.
For the molecule `CCOc1cc(C)c(Cl)cc1S(=O)(=O)NC1CC(C)(C)NC(C)(C)C1`, the concentration for half-maximal inhibition (IC50) is 82.8 µM.
Turning to `CC(NC(=O)/C(C#N)=C/c1cccs1)c1ccccc1` (configuration not stated), the IC50 was 69.5 µM.
With `Cc1cc(Cl)c(S(=O)(=O)Nc2ccc3c(c2)OCCO3)cc1OCC(=O)NC1CCCCC1`, the half-inhibitory concentration (IC50) is 3.55 µM.
Consider `COCCNC(=O)/C(C#N)=C/c1c(F)cccc1Cl`, for which the IC50 is 9.2 µM.
Turning to `Cn1c(=O)c([N+](=O)[O-])c(Cl)c2ccccc21`, the IC50 is 5.56 µM.
Next, `Cc1ccc2[nH]cc(C(=O)CCl)c2c1`: 4.14 µM; `COC(=O)c1cc([N+](=O)[O-])c(-n2cncn2)c([N+](=O)[O-])c1`: 5.07 µM; `COc1cc(NC(C)=O)c2ncccc2c1[N+](=O)[O-]`: 21.1 µM.
Next, `O=C(c1ccc([N+](=O)[O-])cc1)N(Cc1ccc(Br)cc1)N1C(=O)CCCC1=O`: 0.32 µM; `N#Cc1nc(-c2cccs2)oc1NCc1ccccc1`: 7.04 µM; `COc1ccc(NC(=O)/C(Cl)=C(/Cl)S(=O)Cc2ccccc2)cn1` (configuration not stated): 1.21 µM.
In the case of `CSC1=C(C#N)C(=O)NC(c2ccccc2O)S1` (configuration not stated), the IC50 is 7.63 µM.
Turning to `Cn1nc(C(F)(F)F)c(C#N)c1N1CCN(c2ccccc2)CC1`, the IC50 was 15.2 µM.
For `Cn1c(/C(C#N)=C/c2cccc(O)c2)nc2ccccc21`, the IC50 entry was “inactive”.
Consider `O=C(NCc1ccccc1)N1CCC(n2cnc3cc(F)ccc32)CC1`, for which the IC50 result is “inactive”.
For `CCOC(=O)c1c(NC(=O)C[n+]2ccc(Cc3ccccc3)cc2)sc(C)c1C`, the IC50 entry is “inactive”.
Next, `COC(=O)/C=C1/SC(=NC(=O)c2ccc(F)cc2)NC1=O`: 19.1 µM.
Take `O=C(/C=C\c1cccs1)c1c(O)ccc2ccc(=O)oc12`: the IC50 is 4.79 µM.
Turning to `CC(=O)c1c(C)nc(-c2cccc([N+](=O)[O-])c2)n1O`, the IC50 entry is “inactive”.
Regarding `Cc1ccc2nc(NC(=O)C(NS(=O)(=O)c3cccc4nsnc34)C(C)C)sc2c1` (configuration not stated), the IC50 result is “inactive”.
Next, `CCCN1C(=O)/C(=C/c2ccncc2)SC1=S`: 7.7 µM; `N#C/C(=C\c1ccc(O)c(Br)c1)C(=O)NCc1ccccc1`: “inactive”; `COC(=O)Cn1cc(/C=C/[N+](=O)[O-])c2ccccc21`: 63 µM.
As for `O=C1N=C2SCCN2/C1=C\c1ccc(Cl)cc1`, the IC50 is 4.79 µM.
In the case of `Cc1c(N2C(=O)/C(=C\C3CC=CCC3)SC2=S)c(=O)n(-c2ccccc2)n1C` (configuration not stated), the IC50 is 2.66 µM.
On to `O=C(Cn1nc(Cl)nc1Cl)c1cc2ccccc2oc1=O`, for which the IC50 is 18 µM.
For `N#CC1=C(N)N(c2ccccc2)C(c2ccccc2)C1(C#N)C#N` (configuration not stated), the IC50 is 32.2 µM.
Consider `N#Cc1nc(N2CCCC2)nc(N2CCCC2)n1`, for which the IC50 is 41.7 µM.
Take `N#C/C(=C/c1cc(Br)cs1)C(=O)NCC1CCCO1` (configuration not stated): the IC50 entry is “inactive”.
As to `CCCS(=O)(=O)c1nnnn1-c1cccc(OC)c1`, the IC50 result was “inactive”.
Consider `CCN(CC)S(=O)(=O)c1ccc(OC)c(NC(=O)CSc2cc(C)ccc2C)c1`, for which the IC50 was 12.8 µM.
For `C=CCNC(=O)/C(C#N)=C\c1cc(Cl)c(OCC)c(OC)c1`, the IC50 was 86.8 µM.
Regarding `O=C(Cn1nc(CNc2ccc(Cl)cc2)[n+]2c1CCCCC2)c1ccc(Cl)cc1`, the IC50 is 5.52 µM.
For `CCOC(=O)CS(=O)(=O)c1nc(-c2ccccc2)cc(C(F)(F)F)n1`, the IC50 is 12.4 µM.
Turning to `N#C/C(=C\c1ccncc1)c1nc2ccccc2[nH]1`, the IC50 result is “inactive”.
With `N#C/C(=C\c1cccc([N+](=O)[O-])c1)c1nnc2n1CCCCC2`, the IC50 entry was “inactive”.
For the molecule `O=c1c2ccccc2nc(/C=C/c2ccc([N+](=O)[O-])o2)n1CCCO`, the IC50 result was “inactive”.
Next, `COc1ccc(-n2nc(C#N)c(Cl)cc2=O)cc1`: 10.3 µM; `Cc1cc(NC(=O)/C=C/C(=O)N(CC(=O)NC2CCCC2)c2cccc3ccccc23)no1`: 9.96 µM.
For the molecule `COc1ccc(C2(O)CCN(CCCCOc3ccccc3)CC2)cc1`, the IC50 is 10.8 µM.
Take `COC(=O)N/N=C/c1ccc(-c2cc(Cl)ccc2Cl)o1`: the IC50 is 5.79 µM.
Consider `Cc1ccc(C(C)C)c(OCC(=O)NN=C(CCl)CCl)c1`, for which the IC50 entry is “inactive”.
Next, `O=C(CN1CCCC1)Nc1c2c(nc3ccccc13)N(Cc1ccccc1)CC2`: “inactive”; `C[n+]1c2n(c3ccccc31)N=C(c1cc(C(C)(C)C)c(O)c(C(C)(C)C)c1)CS2`: 73.3 µM; `Cc1ccc(/C=C(\C#N)C(=O)NCCN2CCOCC2)cc1`: “inactive”.
With `COC(=O)[C@@]1(Cc2ccccc2)[C@@H]2C(=CC(=O)[C@H]2CC(=O)C(=O)N(C)C)CN1C(=O)c1ccccc1`, the IC50 was 81 µM.
Next, `O=C1c2[nH]nc(-c3ccccc3O)c2C(c2cccc(Cl)c2)N1CC1CCCO1` (configuration not stated): “inactive”; `Cc1ccccc1N1C(=S)NC2c3ccccc3OC1(C)C2C(=O)N(C)C` (configuration not stated): 0.0115 µM.
On to `CCCCNC(=O)/C(C#N)=C/c1ccc(F)cc1F`, for which the half-inhibitory concentration (IC50) was 3.93 µM.
With `Cc1ccc(N2C(=O)NC(=O)/C(=C\C=C\c3ccco3)C2=O)cc1C`, the IC50 was 2.33 µM.
Next, `CSc1ccc(/C=C(\C#N)C(=O)NC2CCCCC2C)cc1` (configuration not stated): 3.24 µM; `CC1CCCCC1NC(=O)/C(C#N)=C/c1ccccc1F` (configuration not stated): 4.75 µM; `Cc1c(Nc2cc(Cl)c3nonc3c2[N+](=O)[O-])c(=O)n(-c2ccccc2)n1C`: 52.8 µM.
As for `CN(C)CCNC(=O)/C(=C/c1ccc(-c2ccc(Cl)cc2)o1)NC(=O)c1ccccc1`, the IC50 entry is “inactive”.
As for `CCOC(=O)c1c(C)n(C)c2ccc(OC)c(NC(=O)CN3CCCCC3)c12`, the IC50 is 7.88 µM.
Turning to `N#CC(C#N)=C1C=CC=CN1/C(=C\c1ccccc1Cl)C(=O)c1ccccc1`, the IC50 is 6.03 µM.
Take `Cc1nn(-c2ccccc2)c(Cl)c1/C=C(\C#N)C(=O)NC(C)C`: the IC50 was 45.5 µM.
Take `O=C(NC1CCCCCC1)c1cc(S(=O)(=O)N2CCCCC2)ccc1N1CCOCC1`: the IC50 was 5.44 µM.
In the case of `COc1cc(NC(=O)C2CCN(S(=O)(=O)c3ccc(Cl)cc3)CC2)ccc1-n1cnnn1`, the 50% inhibitory concentration (IC50) is 2.1 µM.
In the case of `c1csc(CNc2ncnc3sccc23)c1`, the IC50 entry was “inactive”.
On to `Cc1ccc(C)n1-c1ccc(-n2cnnn2)cc1`, for which the IC50 was 10.4 µM.
`O=C1CC(N2CCN(Cc3ccc4c(c3)OCO4)CC2)C(=O)N1c1cccc2ccccc12` (configuration not stated): the IC50 result is “inactive”.
Next, `CCOCCCNC(=O)/C(C#N)=C/c1ccccc1F`: “inactive”; `CC1CCN(C(=O)CSCC(=O)Nc2nc(-c3cccs3)cs2)CC1`: “inactive”.
Next, `N#C/C(=C\c1ccc(Cl)c([N+](=O)[O-])c1)c1ccccn1`: 3.6 µM.
Next, `Cc1nn(CCCC(=O)N2CCN(c3ccc(F)cc3)CC2)c(C)c1[N+](=O)[O-]`: “inactive”; `O=C(CCl)N(Cc1cccc([N+](=O)[O-])c1)c1cccc(Cl)c1`: 9.65 µM; `CS(=O)(=O)n1nc(OC(=O)c2cc(Br)ccc2Cl)cc1N`: “inactive”.
Turning to `N#Cc1ccc(/C=C/C(=O)c2cccnc2)cc1`, the IC50 is 4.51 µM.
For the molecule `COc1ccc(CNCC(O)COc2ccc(C)cc2[N+](=O)[O-])cc1` (configuration not stated), the IC50 result is “inactive”.
With `Cc1ccc(C2=NOC(=O)/C2=C\c2ccc(C)o2)cc1`, the IC50 is 5.22 µM.
As for `CC(=O)/C(=C/c1ccccc1)C(=O)Nc1ccccc1C`, the IC50 is 23 µM.
As to `CC(C)C(c1nnnn1Cc1ccccc1)N1CCN(Cc2ccc3c(c2)OCO3)CC1` (configuration not stated), the half-maximal inhibitory concentration (IC50) is 5.83 µM.
For the molecule `O=C(CCl)N(c1ccccc1)c1ccccc1`, the IC50 entry is “inactive”.
With `Cc1ccc(-n2c3nc(=O)[nH]c(=O)c-3cc3cc([N+](=O)[O-])ccc32)cc1`, the IC50 was 8.66 µM.
As for `CCN1C(=O)c2cccc3c(S(=O)(=O)Nc4ccccc4OC)ccc1c23`, the IC50 result was “inactive”.
`Cc1cc(=O)oc2cc(NC(=S)NCc3ccccn3)ccc12`: the IC50 was 7.2 µM.
Next, `COc1ccc2c(c1OC)C(=O)OC2Nc1nc(-c2cc3ccccc3oc2=O)cs1` (configuration not stated): “inactive”; `CC(CCc1ccccc1)NC(=O)CN1CCN(c2ccccc2)CC1` (configuration not stated): “inactive”.
With `CC(C)c1[nH]nc2c1C(c1cccs1)C(C#N)=C(N)O2` (configuration not stated), the IC50 result was “inactive”.
For the molecule `CC(/C=C1\SC(=S)N(CCCC(=O)Nc2ccc(C(=O)O)cc2)C1=O)=C\c1ccccc1`, the IC50 was 120 µM.
Next, `O=C(O)c1ccc(Cn2cnc3scc(-c4ccccc4)c3c2=O)cc1`: 9.85 µM; `CCCNC(=O)c1nnsc1S(=O)(=O)c1ccc(Cl)cc1`: 9.69 µM.
Consider `CC(=O)c1ccc(N/N=C(/C(N)=O)C2=NC(C)(C)Cc3ccccc32)cc1`, for which the IC50 is 26.9 µM.
Next, `O=C1C=C(c2ccccc2)C(=O)N1Nc1ccccc1`: 2.77 µM.
Take `COc1ccc(NC(=O)/C(C#N)=C/c2ccc(Sc3nncn3C)c([N+](=O)[O-])c2)cc1`: the IC50 was 4.29 µM.
As for `O=[N+]([O-])c1ccc(S(=O)(=O)N2CCN(Cc3c[nH]c4ccccc34)CC2)cc1`, the IC50 result is “inactive”.
Take `CCCNC(=O)c1nnsc1S(=O)c1ccc(Cl)cc1` (configuration not stated): the IC50 was 2.8 µM.
